# Results published in PubChem BioAssay (NCI).
#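 Protocol summary: plate cells (96-well), add compound at 5 concentrations, incubate 48 h, interpolate endpoints linearly. GI50: concentration for 50% inhibition of growth. The concentration for full growth arrest is given as TGI.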
# How the values were obtained:
# Assay in all cases: growth of human tumour cells (NCI), 48 h
# SF-295 CNS = test system: SF-295 CNS
# SK-MEL-2 melanoma = test system: SK-MEL-2 melanoma
# UACC-257 melanoma = test system: UACC-257 melanoma
# COLO 205 colon = test system: COLO 205 colon
# MDA-MB-435 = test system: MDA-MB-435
# MDA-MB-231 breast = test system: MDA-MB-231 breast
# ACHN renal = test system: ACHN renal
# UO-31 renal = test system: UO-31 renal
# CAKI-1 renal = test system: CAKI-1 renal
# SR leukemia = test system: SR leukemia
# HT29 colon = test system: HT29 colon
# SW-620 colon = test system: SW-620 colon
# NCI-H460 lung = test system: NCI-H460 lung
# HS 578T breast = test system: HS 578T breast
# PC-3 prostate = test system: PC-3 prostate
# SNB-75 CNS = test system: SNB-75 CNS
# HCT-15 colon = test system: HCT-15 colon
# NCI-H226 lung = test system: NCI-H226 lung
# SF-268 CNS = test system: SF-268 CNS
# SF-539 CNS = test system: SF-539 CNS
# MCF7 breast = test system: MCF7 breast
# MOLT-4 leukemia = test system: MOLT-4 leukemia
# OVCAR-5 ovarian = test system: OVCAR-5 ovarian
# SK-OV-3 ovarian = test system: SK-OV-3 ovarian
# EKVX NSCLC = test system: EKVX NSCLC
# OVCAR-8 ovarian = test system: OVCAR-8 ovarian
# SNB-19 CNS = test system: SNB-19 CNS
# HCC-2998 colon = test system: HCC-2998 colon
# IGROV1 ovarian = test system: IGROV1 ovarian
# HL-60(TB) leukemia = test system: HL-60(TB) leukemia
# MALME-3M melanoma = test system: MALME-3M melanoma
# A498 renal = test system: A498 renal
# UACC-62 melanoma = test system: UACC-62 melanoma
# 786-0 renal = test system: 786-0 renal
# SN12C renal = test system: SN12C renal
# HCT-116 colon = test system: HCT-116 colon
# CCRF-CEM leukemia = test system: CCRF-CEM leukemia
# NCI-H23 lung = test system: NCI-H23 lung
# U251 CNS = test system: U251 CNS
# HOP-62 NSCLC = test system: HOP-62 NSCLC
# OVCAR-3 ovarian = test system: OVCAR-3 ovarian
# BT-549 breast = test system: BT-549 breast
# NCI-H522 lung = test system: NCI-H522 lung
# HOP-92 NSCLC = test system: HOP-92 NSCLC
# MDA-MB-468 breast = test system: MDA-MB-468 breast
# M14 melanoma = test system: M14 melanoma
# SK-MEL-5 melanoma = test system: SK-MEL-5 melanoma
# RPMI-8226 leukemia = test system: RPMI-8226 leukemia
# DU-145 prostate = test system: DU-145 prostate
# KM12 colon = test system: KM12 colon
# TK-10 renal = test system: TK-10 renal
# K-562 leukemia = test system: K-562 leukemia
# SK-MEL-28 melanoma = test system: SK-MEL-28 melanoma
# OVCAR-4 ovarian = test system: OVCAR-4 ovarian
# A549 NSCLC = test system: A549 NSCLC
# LOX IMVI melanoma = test system: LOX IMVI melanoma
# RXF 393 renal = test system: RXF 393 renal
# T-47D breast = test system: T-47D breast
structure (smiles),measurement,setting,value
O=C(/C=C/c1cccc(Br)c1)c1nc2ccccc2n1Cc1ccc(F)cc1,GI50,SF-295 CNS,11.3 µM
same,TGI,SF-295 CNS,27.1 µM
same,GI50,SK-MEL-2 melanoma,11.6 µM
same,TGI,SK-MEL-2 melanoma,29.6 µM
same,GI50,UACC-257 melanoma,10.7 µM
same,TGI,UACC-257 melanoma,31.1 µM
same,GI50,COLO 205 colon,16.6 µM
same,TGI,COLO 205 colon,36.2 µM
same,GI50,MDA-MB-435,3.87 µM
same,TGI,MDA-MB-435,16.2 µM
same,GI50,MDA-MB-231 breast,6.59 µM
same,TGI,MDA-MB-231 breast,27.2 µM
same,GI50,ACHN renal,13.3 µM
same,TGI,ACHN renal,40.6 µM
same,GI50,UO-31 renal,5.17 µM
same,TGI,UO-31 renal,18.9 µM
same,GI50,CAKI-1 renal,5.72 µM
same,TGI,CAKI-1 renal,32.5 µM
same,GI50,SR leukemia,4.73 µM
same,TGI,SR leukemia,> 100 µM
same,GI50,HT29 colon,5.23 µM
same,TGI,HT29 colon,20.6 µM
same,GI50,SW-620 colon,3.8 µM
same,TGI,SW-620 colon,14.6 µM
same,GI50,NCI-H460 lung,4.65 µM
same,TGI,NCI-H460 lung,20 µM
same,GI50,HS 578T breast,9.74 µM
same,TGI,HS 578T breast,> 100 µM
same,GI50,PC-3 prostate,6.42 µM
same,TGI,PC-3 prostate,34.3 µM
same,GI50,SNB-75 CNS,3.24 µM
same,TGI,SNB-75 CNS,68.1 µM
same,GI50,HCT-15 colon,3.65 µM
same,TGI,HCT-15 colon,14.6 µM
same,GI50,NCI-H226 lung,17 µM
same,TGI,NCI-H226 lung,44 µM
same,GI50,SF-268 CNS,16.7 µM
same,TGI,SF-268 CNS,> 100 µM
same,GI50,SF-539 CNS,13.6 µM
same,TGI,SF-539 CNS,26.8 µM
same,GI50,MCF7 breast,2.83 µM
same,TGI,MCF7 breast,16.7 µM
same,GI50,MOLT-4 leukemia,3.85 µM
same,TGI,MOLT-4 leukemia,> 100 µM
same,GI50,OVCAR-5 ovarian,11.8 µM
same,TGI,OVCAR-5 ovarian,27.7 µM
same,GI50,SK-OV-3 ovarian,62.4 µM
same,TGI,SK-OV-3 ovarian,> 100 µM
same,GI50,EKVX NSCLC,11.5 µM
same,TGI,EKVX NSCLC,28.6 µM
same,GI50,OVCAR-8 ovarian,5.05 µM
same,TGI,OVCAR-8 ovarian,27.1 µM
same,GI50,SNB-19 CNS,11.2 µM
same,TGI,SNB-19 CNS,25.3 µM
same,GI50,HCC-2998 colon,11.4 µM
same,TGI,HCC-2998 colon,24.2 µM
same,GI50,IGROV1 ovarian,8.02 µM
same,TGI,IGROV1 ovarian,32.4 µM
same,GI50,HL-60(TB) leukemia,4.06 µM
same,TGI,HL-60(TB) leukemia,26.7 µM
same,GI50,MALME-3M melanoma,11.6 µM
same,TGI,MALME-3M melanoma,26 µM
same,GI50,A498 renal,54.3 µM
same,TGI,A498 renal,> 100 µM
same,GI50,UACC-62 melanoma,4.67 µM
same,TGI,UACC-62 melanoma,18.2 µM
same,GI50,786-0 renal,11.8 µM
same,TGI,786-0 renal,26.2 µM
same,GI50,SN12C renal,14.9 µM
same,TGI,SN12C renal,40.1 µM
same,GI50,HCT-116 colon,3.79 µM
same,TGI,HCT-116 colon,14.2 µM
same,GI50,CCRF-CEM leukemia,3.83 µM
same,TGI,CCRF-CEM leukemia,> 100 µM
same,GI50,NCI-H23 lung,9.04 µM
same,TGI,NCI-H23 lung,26 µM
same,GI50,U251 CNS,5.49 µM
same,TGI,U251 CNS,20.3 µM
same,GI50,HOP-62 NSCLC,14.6 µM
same,TGI,HOP-62 NSCLC,38.8 µM
same,GI50,OVCAR-3 ovarian,4.17 µM
same,TGI,OVCAR-3 ovarian,16.9 µM
same,GI50,BT-549 breast,3.87 µM
same,TGI,BT-549 breast,16.5 µM
same,GI50,NCI-H522 lung,10.9 µM
same,TGI,NCI-H522 lung,32.7 µM
same,GI50,HOP-92 NSCLC,3.26 µM
same,TGI,HOP-92 NSCLC,35 µM
same,GI50,MDA-MB-468 breast,5.02 µM
same,TGI,MDA-MB-468 breast,18.2 µM
same,GI50,M14 melanoma,10.6 µM
same,TGI,M14 melanoma,26.1 µM
same,GI50,SK-MEL-5 melanoma,10.3 µM
same,TGI,SK-MEL-5 melanoma,23.2 µM
same,GI50,RPMI-8226 leukemia,4.02 µM
same,TGI,RPMI-8226 leukemia,> 100 µM
same,GI50,DU-145 prostate,12.6 µM
same,TGI,DU-145 prostate,47.6 µM
same,GI50,KM12 colon,5.52 µM
same,TGI,KM12 colon,22.4 µM
same,GI50,TK-10 renal,17.1 µM
same,TGI,TK-10 renal,57.5 µM
same,GI50,K-562 leukemia,3.75 µM
same,TGI,K-562 leukemia,> 100 µM
same,GI50,SK-MEL-28 melanoma,9.33 µM
same,TGI,SK-MEL-28 melanoma,23.1 µM
same,GI50,OVCAR-4 ovarian,14.5 µM
same,TGI,OVCAR-4 ovarian,> 100 µM
same,GI50,A549 NSCLC,14.2 µM
same,TGI,A549 NSCLC,96.3 µM
same,GI50,LOX IMVI melanoma,2.87 µM
same,TGI,LOX IMVI melanoma,10.5 µM
same,GI50,RXF 393 renal,4.04 µM
same,TGI,RXF 393 renal,15.9 µM
same,GI50,T-47D breast,5.01 µM
same,TGI,T-47D breast,84.2 µM
